Publication PMC12251307, “One-Pot Synthesis of Novel Pyrimidine Derivatives with Potential Antidiabetic Activity Through Dual α-Glucosidase and α-Amylase Inhibitors” (Molecules, 2025)

What was measured:
α-amylase = α-amylase activity assay (colorimetric kit); assay type: biochemical; details: IC50 ± SD, n = 5; acarbose as standard drug
Protocol: (§1) All chemicals were supplied from Sigma-Aldrich (St. Louis, MO, USA). Melting points were determined via the Stuart SMP10 Digital Advanced MP apparatus (Cole-Parmer Ltd., Stone, UK) and are uncorrected. FTIR spectra were carried out on PerkinElmer (FTIR spectrometer, PerkinElmer Inc., Waltham, MA, USA), which mixed without using anhydrous KBr. The NMR spectra were recorded by JEOL RESONANCE spectrometer (Akishima, Japan) 500 MHZ by using DMSO-d6 as the solvent and chemical shifts (δ) and were recorded in parts per million (ppm) using tetramethyl silane (TMS) as the internal standard. The mass spectra were carried out on LC/MS spectroscopy (LCMS-8040 Shimadzu, Kyoto, Japan, model CAT-30A). Serial no. L20574900241 AE, 220–240 v~50/60 HZ 300 VA was used to record LCMS spectral data for samples. Elemental microanalysis was done on a Carlo Erba analyzer model 110 (Carlo Erba Instruments, Milan, Italy). Also used were α-amylase Assay Kit (Colorimetric) […] (Abcam, Cambridge, MA, USA), α-glucosidase Activity Assay Kit (Colorimetric) […] (Abcam, Cambridge, MA, USA), and Elisa: BioTek (Winooski, VT, USA) introduces Synergy Neo2 high performance Multi-Mode Microplate Reader.
The % inhibition was calculated as follows:% Inhibition = (Absorbancecontrol − Absorbancecompound) × 100/Absorbancecontrol

α-glucosidase = α-glucosidase activity assay (colorimetric kit); assay type: biochemical; details: IC50 ± SD, n = 5; acarbose as standard drug
Protocol: as §1
The α-glucosidase activity assay was conducted as we reported earlier. Samples (50 μL) were added to 96 wells, and the volume was adjusted to 100 μL/well with an assay buffer. For the reaction, 50 μL of reaction mix for each reaction were performed by adding assay buffer 47 μL and substrate mix 3 μL.

Compound | IC50 (α-amylase) | IC50 (α-glucosidase)
COc1cc(NNC(=S)Nc2ccc(C)cc2)nc(N)n1 [Compound 16, 2-(2-Amino-6-methoxypyrimidin-4-yl)-N-(p-tolyl)hydrazine Carbothioamide] | 34.24 ± 0.16 µM | 36.14 ± 0.12 µM
COc1cc(NNC(=S)Nc2cccc(Br)c2)nc(N)n1 [Compound 9, 2-(2-Amino-6-methoxypyrimidin-4-yl)-N-(3-bromophenyl)-hydrazine Carbothioamide] | 18.16 ± 0.08 µM | 19.11 ± 0.11 µM
COc1cc(NNC(=S)Nc2cccc(C#N)c2)nc(N)n1 [Compound 17, 2-(2-Amino-6-methoxypyrimidin-4-yl)-N-(3-cyanophenyl)hydrazine Carbothioamide] | 40.16 ± 0.11 µM | 42.19 ± 0.13 µM
COc1cc(NNC(=S)Nc2cccc([N+](=O)[O-])c2)nc(N)n1 [Compound 11, 2-(2-Amino-6-methoxypyrimidin-4-yl)-N-(3-nitrophenyl)hydrazine Carbothioamide] | 21.14 ± 0.12 µM | 22.11 ± 0.13 µM
COc1cc(NNC(=S)Nc2cccc(Cl)c2)nc(N)n1 [Compound 6, 2-(2-Amino-6-methoxypyrimidin-4-yl)-N-(3-chlorophenyl) Hydrazine Carbothioamide] | 15.17 ± 0.07 µM | 16.13 ± 0.11 µM
COc1cc(NNC(=S)Nc2cccc(F)c2)nc(N)n1 [Compound 4, 2-(2-Amino-6-methoxypyrimidin-4-yl)-N-(3-fluorophenyl)hydrazine Carbothioamide] | 11.1 ± 0.12 µM | 12.16 ± 0.12 µM
COc1cccc(NC(=S)NNc2cc(OC)nc(N)n2)c1 [Compound 14, 2-(2-Amino-6-methoxypyrimidin-4-yl)-N-(3-methoxyphenyl)-hydrazine Carbothioamide] | 33.18 ± 0.14 µM | 30.12 ± 0.13 µM
